Laboratory results published in article PMC11680164 (Viruses, 2024).

Columns and labels:
[1] = Pharmacokinetics (plasma and lung) after single oral dose in mice; assay type: in vivo, Swiss Webster mice; settings: 60 mg/kg p.o. single dose
[2] = cited from earlier work
[3] = Swiss Webster, mouse, po, plasma

## COC(=O)N[C@H](C(=O)N1CCC[C@H]1c1nc(-c2ccc(-c3ccc(-c4c[nH]c([C@@H]5CCCN5C(=O)[C@@H](NC(=O)OC)C(C)C)n4)cc3)cc2)c[nH]1)C(C)C [daclatasvir]
[1]
  AUC in plasma relative to lungs: ~5.9 fold
[1]; Swiss Webster, mouse, po, lung
  Cmax: 6190 ng/g
  Tmax: 0.67 h
  half-life: 14.7 h
[1]; [3]
  AUC(0-inf): 103 µg·h/mL
  AUC(0-t): 101 µg·h/mL
  Cmax: 22200 ng/mL
  Tmax: 1 h
  half-life: 2.25 h
[1]; lung
  AUClast: 16,932 h.ng/g
  AUC∞: 19,123 h.ng/g
  Ct (last concentration observed above the limit of quantification): 103.46 ng/g
  Tlast: 16.00 h
  λ (apparent elimination constant): 0.0472 h*^−1
[1]; plasma
  Ct (last concentration observed above the limit of quantification): 353.84 ng/mL
  Tlast: 16.00 h
  λ (apparent elimination constant): 0.308 h*^−1
[2]; nonhuman primates treated daily for 4–9 months
  no-observable-effect level (NOEL): 15 mg/kg
[2]; nonhuman primates
  tolerated dose: 15 mg/kg
